From ChEMBL document CHEMBL1201862, “PubChem BioAssay data set” (2004)
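Values below derive from 48-hour exposures of cells grown in 96-well plates, with endpoints linearly interpolated between the two concentrations bracketing the appropriate inhibition level. GI50 marks 50% less growth.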 The source made the active and inactive calls. Rule as the data show it: active = GI50 up to about 1.1 µM and inactive = higher.

Key:
Assay in all cases: NCI-60 cell line screen, 48 h
ACHN = tested on: ACHN
CCRF-CEM = tested on: CCRF-CEM
DU-145 = tested on: DU-145
HCC 2998 = tested on: HCC 2998
HL-60 = tested on: HL-60
IGROV-1 = tested on: IGROV-1
K562 = tested on: K562
LOX IMVI = tested on: LOX IMVI
MDA-MB-231 = tested on: MDA-MB-231
MDA-MB-435 = tested on: MDA-MB-435
Malme-3M = tested on: Malme-3M
NCI-H23 = tested on: NCI-H23
SF-268 = tested on: SF-268
SK-MEL-2 = tested on: SK-MEL-2
SN12C = tested on: SN12C
SNB-19 = tested on: SNB-19
SNB-75 = tested on: SNB-75
SW-620 = tested on: SW-620
U-251 = tested on: U-251
UO-31 = tested on: UO-31

Measured: GI50

O=C(NCCCNC(=O)c1ccc2c(O)c(O)ccc2c1)c1ccc2c(O)c(O)ccc2c1
inactive: ACHN 24.2 µM | CCRF-CEM 5.18 µM | DU-145 71.1 µM | HCC 2998 > 60.4 µM | HL-60 6.32 µM | IGROV-1 18.8 µM | K562 19.1 µM | LOX IMVI 9.57 µM | MDA-MB-231 29.6 µM | MDA-MB-435 15.1 µM | Malme-3M > 95.5 µM | NCI-H23 22.1 µM | SF-268 22.9 µM | SK-MEL-2 35.3 µM | SN12C 22.4 µM | SNB-19 25.7 µM | SNB-75 17.1 µM | SW-620 25.5 µM | U-251 24.1 µM | UO-31 26.6 µM

COc1nc(OC)nc(-c2cccc(F)c2)n1
inactive: ACHN 16.4 µM | CCRF-CEM 9.2 µM | DU-145 13.2 µM | HCC 2998 13.4 µM | HL-60 24.3 µM | IGROV-1 16.1 µM | K562 18.1 µM | LOX IMVI 17 µM | MDA-MB-231 14.5 µM | MDA-MB-435 15 µM | Malme-3M 15.2 µM | NCI-H23 12 µM | SF-268 14 µM | SK-MEL-2 18.8 µM | SN12C 16.2 µM | SNB-19 16.9 µM | SNB-75 21.2 µM | SW-620 17.7 µM | U-251 15.7 µM | UO-31 16.6 µM

CCCCCCCCCCCCCC(=O)N(CCCCCCCCC)CC(O)C(O)C(OC1OC(CO)C(O)C(O)C1O)C(O)CO (stereo not given)
inactive: ACHN 15.8 µM | CCRF-CEM 26.2 µM | DU-145 16.5 µM | HCC 2998 18.5 µM | HL-60 23.3 µM | IGROV-1 20.2 µM | K562 19.9 µM | LOX IMVI 19.5 µM | MDA-MB-231 20.7 µM | MDA-MB-435 19.8 µM | Malme-3M 18.3 µM | NCI-H23 19.7 µM | SF-268 19.1 µM | SK-MEL-2 24.6 µM | SN12C 19.8 µM | SNB-19 24.5 µM | SNB-75 19.5 µM | SW-620 19.9 µM | U-251 22.5 µM | UO-31 19.1 µM

Oc1ccc(Cl)cc1C1=NC(NCN2CCN(CNC3=NC(c4ccccc4)CC(c4cc(Cl)ccc4O)=N3)CC2)=NC(c2ccccc2)C1 (stereo not given)
inactive: ACHN 24.8 µM | CCRF-CEM 21.5 µM | DU-145 41.8 µM | HCC 2998 52.6 µM | HL-60 28.4 µM | IGROV-1 34.4 µM | K562 36.2 µM | LOX IMVI 40.6 µM | MDA-MB-231 > 100 µM | MDA-MB-435 48.6 µM | Malme-3M 93.5 µM | NCI-H23 46.6 µM | SF-268 32.7 µM | SK-MEL-2 43 µM | SN12C 24.7 µM | SNB-19 41.6 µM | SNB-75 35.6 µM | SW-620 33.1 µM | U-251 35.4 µM | UO-31 37.3 µM

Cc1c2c(c(C)n1-c1ccccc1)C(=O)N(CCCCN1CCN(c3ccccc3)CC1)C2=O
inactive: ACHN 23.1 µM | CCRF-CEM 7.21 µM | DU-145 19 µM | HCC 2998 4.99 µM | HL-60 5.5 µM | IGROV-1 15.1 µM | K562 4.22 µM | LOX IMVI 10 µM | MDA-MB-231 10 µM | MDA-MB-435 8.05 µM | Malme-3M 4.03 µM | NCI-H23 6.73 µM | SF-268 37.8 µM | SK-MEL-2 22.3 µM | SN12C 13.1 µM | SNB-19 29 µM | SNB-75 6.89 µM | SW-620 18.9 µM | U-251 14.5 µM | UO-31 4.17 µM

COc1ccc2nc3ccc(OC)cc3c(SCc3ccc([N+](=O)[O-])cc3)c2c1
inactive: ACHN 79.1 µM | CCRF-CEM > 100 µM | DU-145 > 100 µM | HCC 2998 > 100 µM | HL-60 > 100 µM | IGROV-1 63.5 µM | K562 > 100 µM | LOX IMVI > 100 µM | MDA-MB-231 39.2 µM | MDA-MB-435 > 100 µM | Malme-3M > 100 µM | NCI-H23 50 µM | SF-268 54.7 µM | SK-MEL-2 > 100 µM | SN12C > 100 µM | SNB-19 > 100 µM | SNB-75 37.1 µM | SW-620 > 100 µM | U-251 > 10 µM | UO-31 > 100 µM
